Results taken from patent publication US20260041679A1, “METHOD OF TREATING HYPERTENSION WITH THE ALDOSTERONE SYNTHASE INHIBITOR BAXDROSTAT” (CINCOR PHARMA, INC., priority 2022, published 2026).

How the values were obtained:
[1] = Single ascending dose study, safety and tolerability (Example 1); type: in vivo; conditions: single dose 1 to 360 mg
Experimental: Eighty-eight healthy male volunteers completed the first-in-human study of baxdrostat. In part 1 of the trial, subjects received a single oral dose of baxdrostat ranging from 1 to 360 mg in order to evaluate safety, tolerability, PK, and pharmacodynamics (PD). Part 2 evaluated the PK of a single 3 mg intravenous dose of baxdrostat.

[2] = biological target: T1, aldosterone synthase (Homo sapiens, UniProt P19099); assay: Multiple ascending dose study, pharmacodynamics: plasma aldosterone, cortisol, electrolytes (Example 2); type: in vivo
T1 construct: Pharmacodynamic measurements included plasma aldosterone, cortisol, and electrolytes; endogenous in cells; host or cells: human subjects in vivo (healthy volunteers; resistant hypertension patients)
T1 sequence (P19099 25-503): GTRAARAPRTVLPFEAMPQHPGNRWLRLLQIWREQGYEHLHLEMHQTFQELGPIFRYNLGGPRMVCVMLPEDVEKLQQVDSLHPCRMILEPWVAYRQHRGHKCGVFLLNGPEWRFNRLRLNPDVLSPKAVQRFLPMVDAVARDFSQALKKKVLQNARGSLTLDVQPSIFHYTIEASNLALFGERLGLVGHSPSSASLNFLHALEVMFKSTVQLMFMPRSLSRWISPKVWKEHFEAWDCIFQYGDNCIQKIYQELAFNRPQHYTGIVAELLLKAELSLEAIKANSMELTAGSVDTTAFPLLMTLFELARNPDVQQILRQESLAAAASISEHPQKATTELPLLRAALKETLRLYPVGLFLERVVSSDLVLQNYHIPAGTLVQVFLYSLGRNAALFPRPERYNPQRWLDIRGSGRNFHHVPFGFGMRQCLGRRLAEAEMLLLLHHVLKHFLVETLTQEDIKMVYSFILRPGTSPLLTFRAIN
Experimental: This randomized, double-blind, placebo-controlled phase 1 study evaluated the safety, pharmacokinetics, and pharmacodynamics of multiple ascending doses of baxdrostat in healthy volunteers. Fifty-six subjects were randomized to receive oral baxdrostat (0.5, 1.5, 2.5, or 5.0 mg) or placebo once daily for ten days and were placed on either a low salt or normal salt diet for the duration of the study. In particular, subjects were randomized into 5 cohorts to receive baxdrostat or placebo once daily for 10 days. Cohorts 1 and 2 were placed on a low salt diet to stimulate aldosterone production and were administered 2.5 or 5.0 mg oral baxdrostat, respectively. Cohorts 1 and 2 also underwent an adrenocorticotropic hormone (ACTH) challenge to increase aldosterone and cortisol levels to evaluate the specificity of baxdrostat for targeting aldosterone synthase. Cohorts 3, 4, and 5 were placed on a normal salt diet and were administered 1.5, 2.5, or 0.5 mg oral baxdrostat, respectively. Blood samples were collected prior to and after dosing on days 1 and 10 for measurement of plasma baxdrostat concentrations to characterize single-dose and steady-state pharmacokinetics. Pharmacodynamic measurements included plasma aldosterone, cortisol, and electrolytes. Safety assessments included physical examination, electrocardiograms, orthostatic vital signs, and clinical laboratory evaluations.

[3] = Safety in subjects with varying degrees of renal function (Example 4); type: in vivo, human
Experimental: Safety was assessed throughout the study based on adverse events, physical examinations, ECG, seated and orthostatic vital signs, weight measurements, and clinical laboratory evaluations

[4] = Study 121: adverse events, safety population
[5] = control eGFR ≥60 mL/min (n = 10)
[6] = moderate to severe renal impairment (n = 11)
[7] = single 10 mg, all renal function groups

For `CCC(=O)N[C@@H]1CCCc2c(-c3ccc4c(c3)CCC(=O)N4C)cncc21` [baxdrostat, (R)—N-(4-(1-methyl-2-oxo-1,2,3,4-tetrahydroquinolin-6-yl)-5,6,7,8-tetrahydroisoquinolin-8-yl) propionamide], the “deaths, serious adverse events, dose-limiting adverse events” value [1] was “no deaths, serious adverse events, or dose-limiting adverse events”, the side effects [1] was “mild and included headache, nasopharyngitis, and diarrhea” and the “plasma aldosterone, reduction” value ([2]; Day 10) was 51-73%. The plasma aldosterone ([2]; doses ≥1.5 mg, regardless of diet) was “dose-dependent reduction of plasma aldosterone”, the plasma cortisol ([2]; once daily, 10 days) was “no meaningful impact on plasma cortisol” and the plasma sodium levels ([2]; once daily, 10 days) was “mild dose-dependent decreases in plasma sodium levels”. The potassium levels ([2]; once daily, 10 days) was “increases in potassium levels”, the “Diarrhea, n (%)” value ([3]; Total (n = 33)) was 1 (3.0) n (%) and the “Metabolic encephalopathy, n (%)” value ([3]; Total (n = 33)) was 1 (3.0) n (%). The “Subjects with any TEAEs, n (%)” value ([3]; Total (n = 33)) was 2 (6.1) n (%), the “Tremor, n (%)” value ([3]; Total (n = 33)) was 1 (3.0) n (%) and the “Diarrhea, n (%)” value [3, 5] was 1 (10.0) n (%). The “Metabolic encephalopathy, n (%)” value [3, 5] was 0 (0.0) n (%), the “Subjects with any TEAEs, n (%)” value [3, 5] was 1 (10.0) n (%) and the “Tremor, n (%)” value [3, 5] was 0 (0.0) n (%). For the same molecule, the “Diarrhea, n (%)” value ([3]; kidney failure (n = 12)) was 0 (0.0) n (%), the “Subjects with any TEAEs, n (%)” value ([3]; kidney failure (n = 12)) was 1 (8.3) n (%) and the “Metabolic encephalopathy, n (%)” value ([3]; kidney failure (n = 12), considered severe and unrelated to the study drug) was 1 (8.3) n (%). For the same molecule, the “Tremor, n (%)” value ([3]; kidney failure (n = 12), unrelated to the study drug) was 1 (8.3) n (%), the “Diarrhea, n (%)” value [3, 6] was 0 (0.0) n (%) and the “Metabolic encephalopathy, n (%)” value [3, 6] was 0 (0.0) n (%). For the same molecule, the “Subjects with any TEAEs, n (%)” value [3, 6] was 0 (0.0) n (%), the “Tremor, n (%)” value [3, 6] was 0 (0.0) n (%) and the “deaths and drug-related treatment-emergent adverse events” value [3, 7] was “no deaths and only one mild drug-related treatment-emergent adverse event (diarrhea)”. The “laboratory values, vital signs, physical examinations, ECGs” value [3, 7] was “no clinically meaningful changes”, the “TESAE, Number of Subjects (Number of Events)” value (shortened to “TESAE, Number of Subjects”) ([4]; 0.5 mg) was 0 (0) subjects (events) and the “TESAE: General disorders and administration site conditions” value ([4]; 0.5 mg) was 0 subjects (events). The “TESAE: Infections and infestations” value ([4]; 0.5 mg) was 0 subjects (events), the “TESAE: Metabolism and nutrition disorders” value ([4]; 0.5 mg) was 0 subjects (events) and the “TESAE: Musculoskeletal and connective tissue disorders” value ([4]; 0.5 mg) was 0 subjects (events). The “TESAE: Nervous system disorders” value ([4]; 0.5 mg) was 0 subjects (events), the “TESAE: Renal and urinary disorders” value ([4]; 0.5 mg) was 0 subjects (events) and the “TESAE: Respiratory, thoracic and mediastinal disorders” value ([4]; 0.5 mg) was 0 subjects (events). For the same molecule, the “adverse events of special interest (AESIs), patients per arm” value (“adverse events … per arm” for short) ([4]; 0.5 mg) was 1, the “percentage of patients who experienced TEAEs” value (“percentage” for short) ([4]; 0.5 mg) was 34.8% and the “TESAE, Number of Subjects” value ([4]; 1 mg) was 2 (3) subjects (events). The “TESAE: Infections and infestations” value ([4]; 1 mg) was 1 (1) subjects (events), the “TESAE: Intervertebral disc degeneration” value ([4]; 1 mg) was 1 (1) subjects (events) and the “TESAE: Musculoskeletal and connective tissue disorders” value ([4]; 1 mg) was 1 (1) subjects (events). For the same molecule, the “TESAE: Nephrolithiasis” value ([4]; 1 mg) was 1 (1) subjects (events), the “TESAE: Pyelonephritis” value ([4]; 1 mg) was 1 (1) subjects (events) and the “TESAE: Renal and urinary disorders” value ([4]; 1 mg) was 1 (1) subjects (events). The “percentage” value ([4]; 1 mg) was 52.2%, the “adverse events … per arm” value ([4]; 1 mg arm) was 5 and the “TESAE, Number of Subjects” value ([4]; 2 mg) was 6 (12) subjects (events). For the same molecule, the “TESAE: Acute kidney injury” value ([4]; 2 mg) was 1 (1) subjects (events), the “TESAE: Acute respiratory failure” value ([4]; 2 mg) was 1 (1) subjects (events) and the “TESAE: Arthralgia” value ([4]; 2 mg) was 1 (1) subjects (events). For the same molecule, the “TESAE: Cellulitis” value ([4]; 2 mg) was 1 (1) subjects (events), the “TESAE: Dehydration” value ([4]; 2 mg) was 1 (1) subjects (events) and the “TESAE: Dizziness” value ([4]; 2 mg) was 1 (1) subjects (events). For the same molecule, the “TESAE: Hyperglycaemia” value ([4]; 2 mg) was 1 (1) subjects (events), the “TESAE: Hyperkalemia” value ([4]; 2 mg) was 1 (1) subjects (events) and the “TESAE: Hyponatraemia” value ([4]; 2 mg) was 1 (1) subjects (events). The “TESAE: Infections and infestations” value ([4]; 2 mg) was 2 (2) subjects (events), the “TESAE: Metabolism and nutrition disorders” value ([4]; 2 mg) was 1 (4) subjects (events) and the “TESAE: Musculoskeletal and connective tissue disorders” value ([4]; 2 mg) was 1 (1) subjects (events). The “TESAE: Nervous system disorders” value ([4]; 2 mg) was 2 (2) subjects (events), the “TESAE: Renal and urinary disorders” value ([4]; 2 mg) was 1 (1) subjects (events) and the “TESAE: Respiratory failure” value ([4]; 2 mg) was 1 (1) subjects (events). For the same molecule, the “TESAE: Respiratory, thoracic and mediastinal disorders” value ([4]; 2 mg) was 2 (2) subjects (events), the “TESAE: Syncope” value ([4]; 2 mg) was 1 (1) subjects (events) and the “TESAE: Urinary tract infection” value ([4]; 2 mg) was 1 (1) subjects (events). The “percentage” value ([4]; 2 mg) was 47.8%, the “adverse events … per arm” value ([4]; 2 mg arm) was 2 and the adrenal insufficiency ([4]; Study 121) was “no reported cases of adrenal insufficiency”. For the same molecule, the “deaths and relatedness of SAEs” value ([4]; Study 121) was “no deaths in the study and all SAEs were assessed by the investigators to be unrelated to baxdrostat” and the tolerability ([4]; once daily for 12 weeks) was “well tolerated”.
